The record followed here is patent publication US9718828B2 (MERCK SHARP & DOHME CORP., priority 2011, dated 2017).

The target of the first assay is hBTK (full-length BTK, 6HIS-tag cleaved) (Homo sapiens (Human), UniProt Q06187). Description: BTK enzymatic activity, LANCE TR-FRET assay (Assay Method C). In kind it is biochemical. To be noted: LANCE TR-FRET, 50 pM hBTK, 25 μM ATP; class 100-1000 is given as ≧100 nM-<1 μM; read-out: IC50 Btk activity values - Assay Method C.
hBTK (full-length BTK, 6HIS-tag cleaved), sequence (Q06187 whole entry): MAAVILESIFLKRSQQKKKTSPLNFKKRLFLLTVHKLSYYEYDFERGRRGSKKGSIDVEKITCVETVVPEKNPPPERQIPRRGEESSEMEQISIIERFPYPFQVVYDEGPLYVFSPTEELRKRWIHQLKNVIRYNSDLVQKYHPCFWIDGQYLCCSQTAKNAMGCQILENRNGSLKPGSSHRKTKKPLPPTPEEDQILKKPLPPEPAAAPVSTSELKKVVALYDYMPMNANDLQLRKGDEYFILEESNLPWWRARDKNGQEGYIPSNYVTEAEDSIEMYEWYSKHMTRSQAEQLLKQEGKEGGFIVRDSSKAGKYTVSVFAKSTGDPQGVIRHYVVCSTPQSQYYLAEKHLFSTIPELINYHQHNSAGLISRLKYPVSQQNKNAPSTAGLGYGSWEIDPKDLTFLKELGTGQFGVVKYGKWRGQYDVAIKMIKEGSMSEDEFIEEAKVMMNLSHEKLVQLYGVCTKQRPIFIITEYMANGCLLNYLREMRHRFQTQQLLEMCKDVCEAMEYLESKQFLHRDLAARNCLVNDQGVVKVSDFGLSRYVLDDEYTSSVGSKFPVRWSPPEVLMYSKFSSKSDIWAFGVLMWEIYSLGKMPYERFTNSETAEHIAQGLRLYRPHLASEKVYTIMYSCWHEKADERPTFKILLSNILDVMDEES
For `Cn1ccc(NC(=O)c2ccc(-c3nc([C@@H]4CCCN(C(=O)C5(C)COC5)C4)n4ccnc(N)c34)cc2)n1` [Example 365, 4-(8-amino-3-{(3R)-1-[(3-methyloxetan-3-yl)carbonyl]piperidin-3-yl}imidazo[1,5-a]pyrazin-1-yl)-N-(1-methyl-1H-pyrazol-3-yl)benzamide], the IC50 lay within 10 to 100 nM.
Consider `Cc1cnc(NC(=O)c2ccc(-c3nc([C@@H]4CCCN(C(=O)C5(C)COC5)C4)n4ccnc(N)c34)cc2)s1` [Example 366, 4-(8-amino-3-{(3R)-1-[(3-methyloxetan-3-yl)carbonyl]piperidin-3-yl}imidazo[1,5-a]pyrazin-1-yl)-N-(5-methyl-1,3-thiazol-2-yl)benzamide], for which the IC50 was < 10 nM.
For the compound `Cc1nc(NC(=O)c2ccc(-c3nc([C@@H]4CCCN(C(=O)C5(C)COC5)C4)n4ccnc(N)c34)cc2)sc1C` [Example 367, 4-(8-amino-3-{(3R)-1-[(3-methyloxetan-3-yl)carbonyl]piperidin-3-yl}imidazo[1,5-a]pyrazin-1-yl)-N-(4,5-dimethyl-1,3-thiazol-2-yl)benzamide], the IC50 was < 10 nM.
Same read-out and setting: the result for `CC1(C(=O)N2CCC[C@@H](c3nc(-c4ccc(C(=O)Nc5ncns5)cc4)c4c(N)nccn34)C2)COC1` [Example 368, 4-(8-amino-3-{(3R)-1-[(3-methyloxetan-3-yl)carbonyl]piperidin-3-yl}imidazo[1,5-a]pyrazin-1-yl)-N-1,2,4-thiadiazol-5-ylbenzamide] reads 10 to 100 nM; that for `CC1(C(=O)N2CCC[C@@H](c3nc(-c4ccc(C(=O)Nc5ncc(C(C)(C)C)s5)cc4)c4c(N)nccn34)C2)COC1` [Example 369, 4-(8-amino-3-{(3R)-1-[(3-methyloxetan-3-yl)carbonyl]piperidin-3-yl}imidazo[1,5-a]pyrazin-1-yl)-N-(5-tert-butyl-1,3-thiazol-2-yl)benzamide], < 10 nM.
On to `CC1(C(=O)N2CCC[C@@H](c3nc(-c4ccc(C(=O)Nc5cnsc5)cc4)c4c(N)nccn34)C2)COC1` [Example 370, 4-(8-amino-3-{(3R)-1-[(3-methyloxetan-3-yl)carbonyl]piperidin-3-yl}imidazo[1,5-a]pyrazin-1-yl)-N-isothiazol-4-ylbenzamide], for which the IC50 fell in the range of 10 to 100 nM.
`CCc1ccnc(NC(=O)c2ccc(-c3nc([C@@H]4CCCN(C(=O)C5(O)CC5)C4)n4ccnc(N)c34)cc2)c1` [Example 371, 4-(8-amino-3-{(3R)-1-[(1-hydroxycyclopropyl)carbonyl]piperidin-3-yl}imidazo[1,5-a]pyrazin-1-yl)-N-(4-ethylpyridin-2-yl)benzamide]: the IC50 was < 10 nM.
Same read-out and setting: the result for `CCC(=O)N1CCC[C@@H](c2nc(-c3ccc(C(=O)Nc4cc(OC)ccn4)cc3)c3c(N)nccn23)C1` [Example 372, 4-{8-amino-3-[(3R)-1-propanoylpiperidin-3-yl]imidazo[1,5-a]pyrazin-1-yl}-N-(4-methoxypyridin-2-yl)benzamide] reads < 10 nM; that for `CC1(C(=O)N2CCC[C@@H](c3nc(-c4ccc(C(=O)Nc5cc(C(F)(F)F)ccn5)cc4)c4c(N)ncc(C#N)n34)C2)COC1` [Example 373, (R)-4-(8-amino-5-cyano-3-(1-(3-methyloxetane-3-carbonyl)piperidin-3-yl)imidazo[1,5-a]pyrazin-1-yl)-N-(4-(trifluoromethyl)pyridin-2-yl)benzamide], < 10 nM.
Same read-out and setting: the result for `CC1(C(=O)N2CCC[C@@H](n3nc(-c4ccc(C(=O)Nc5cc(C(F)(F)F)ccn5)cc4)c4c(N)nccc43)C2)COC1` [Example 381, 4-(4-amino-1-{(3R)-1-[(3-methyloxetan-3-yl)carbonyl]piperidin-3-yl}-1H-pyrazolo[4,3-c]pyridin-3-yl)-N-[4-(trifluoromethyl)pyridin-2-yl]benzamide] reads < 10 nM.
Turning to `CC1(C(=O)N2CCC[C@@H](n3nc(-c4ccc(C(=O)Nc5cc(C(F)(F)F)ccn5)cc4)c4c(N)ncc(Cl)c43)C2)COC1` [Example 382, 4-(4-amino-7-chloro-1-{(3R)-1-[(3-methyloxetan-3-yl)carbonyl]piperidin-3-yl}-1H-pyrazolo[4,3-c]pyridin-3-yl)-N-[4-(trifluoromethyl)pyridin-2-yl]benzamide], the IC50 is < 10 nM.
Turning to `COCC(=O)N1CCC[C@@H](n2nc(-c3ccc(C(=O)Nc4cc(C(F)(F)F)ccn4)cc3)c3c(N)nccc32)C1` [Example 383, 4-{4-amino-1-[(3R)-1-(methoxyacetyl)piperidin-3-yl]-1H-pyrazolo[4,3-c]pyridin-3-yl}-N-[4-(trifluoromethyl)pyridin-2-yl]benzamide], the concentration for half-maximal inhibition (IC50) was < 10 nM.
As for `Nc1nccc2c1c(-c1ccc(C(=O)Nc3cc(C(F)(F)F)ccn3)cc1)nn2[C@@H]1CCCN(C(=O)C2CC2)C1` [Example 384, 4-{4-amino-1-[(3R)-1-(cyclopropylcarbonyl)piperidin-3-yl]-1H-pyrazolo[4,3-c]pyridin-3-yl}-N-[4-(trifluoromethyl)pyridin-2-yl]benzamide], the IC50 is < 10 nM.
Turning to `CC(=O)N1CCC[C@@H](n2nc(-c3ccc(C(=O)Nc4cc(C(F)(F)F)ccn4)cc3)c3c(N)nccc32)C1` [Example 385, 4-{1-[(3R)-1-acetylpiperidin-3-yl]-4-amino-1H-pyrazolo[4,3-c]pyridin-3-yl}-N-[4-(trifluoromethyl)pyridin-2-yl]benzamide], the IC50 is < 10 nM.
The same measure, in the same setting: the result for `CCc1ccnc(NC(=O)c2ccc(-c3nn([C@@H]4CCCN(C(=O)C5(C)COC5)C4)c4ccnc(N)c34)cc2)c1` [Example 386, 4-(4-amino-1-{(3R)-1-[(3-methyloxetan-3-yl)carbonyl]piperidin-3-yl}-1H-pyrazolo[4,3-c]pyridin-3-yl)-N-(4-ethylpyridin-2-yl)benzamide] reads < 10 nM; that for `Cc1ccnc(NC(=O)c2ccc(-c3nn([C@@H]4CCCN(C(=O)C5(C)COC5)C4)c4ccnc(N)c34)cc2)c1` [Example 387, 4-(4-amino-1-{(3R)-1-[(3-methyloxetan-3-yl)carbonyl]piperidin-3-yl}-1H-pyrazolo[4,3-c]pyridin-3-yl)-N-(4-methylpyridin-2-yl)benzamide], < 10 nM; that for `COc1ccnc(NC(=O)c2ccc(-c3nn([C@@H]4CCCN(C(=O)C5(C)COC5)C4)c4ccnc(N)c34)cc2)c1` [Example 388, 4-(4-amino-1-{(3R)-1-[(3-methyloxetan-3-yl)carbonyl]piperidin-3-yl}-1H-pyrazolo[4,3-c]pyridin-3-yl)-N-(4-methoxypyridin-2-yl)benzamide], < 10 nM.
Same read-out and setting: the result for `COCCC(=O)N1C[C@H](c2nc(-c3ccc(C(=O)Nc4cc(C(F)(F)F)ccn4)c(F)c3)c3c(N)nccn23)CC[C@@H]1C` [Example 392, 4-{8-amino-3-[(3R,6S)-1-(3-methoxypropanoyl)-6-methylpiperidin-3-yl]imidazo[1,5-a]pyrazin-1-yl}-2-fluoro-N-[4-(trifluoromethyl)pyridin-2-yl]benzamide] reads < 10 nM.
Same read-out and setting: to `C[C@H]1CC[C@@H](c2nc(-c3ccc(C(=O)Nc4cc(C(F)(F)F)ccn4)cc3)c3c(N)nccn23)CN1C(=O)C1(C)COC1` [Example 393, 4-(8-amino-3-{(3R,6S)-6-methyl-1-[(3-methyloxetan-3-yl)carbonyl]piperidin-3-yl}imidazo[1,5-a]pyrazin-1-yl)-N-[4-(trifluoromethyl)pyridin-2-yl]benzamide] belongs < 10 nM; to `Nc1nccn2c(C3CCC(C(F)(F)F)N(C(=O)C4CC4)C3)nc(-c3ccc(C(=O)Nc4cc(C(F)(F)F)ccn4)cc3F)c12` (stereo not drawn) [Example 399, 4-{8-amino-3-[1-(cyclopropylcarbonyl)-6-(trifluoromethyl)piperidin-3-yl]imidazo[1,5-a]pyrazin-1-yl}-3-fluoro-N-[4-(trifluoromethyl)pyridin-2-yl]benzamide], < 10 nM; to `C[C@H]1CC[C@@H](c2nc(-c3ccc(C(=O)Nc4cc(C(F)(F)F)ccn4)c(Cl)c3)c3c(N)nccn23)CN1C(=O)C1(C)COC1` [Example 400, 4-(8-amino-3-{(3R,6S)-6-methyl-1-[(3-methyloxetan-3-yl)carbonyl]piperidin-3-yl}imidazo[1,5-a]pyrazin-1-yl)-2-chloro-N-[4-(trifluoromethyl)pyridin-2-yl]benzamide], < 10 nM.
As for `CCN1C[C@@H](c2nc(-c3ccc(C(=O)Nc4ccccn4)cc3)c3c(N)nccn23)CC[C@@H]1C(F)(F)F` [Example 408, 4-{8-amino-3-[(3S,6R)-1-ethyl-6-(trifluoromethyl)piperidin-3-yl]imidazo[1,5-a]pyrazin-1-yl}-N-pyridin-2-ylbenzamide], the 50% inhibitory concentration (IC50) was < 10 nM.
As for `C[C@H]1CC[C@@H](c2nc(-c3ccc(C(=O)Nc4cc(OC5CC5)ccn4)cc3)c3c(N)nccn23)CN1C(=O)C1(C)COC1` [Example 409, 4-(8-amino-3-{(3R,6S)-6-methyl-1-[(3-methyloxetan-3-yl)carbonyl]piperidin-3-yl}imidazo[1,5-a]pyrazin-1-yl)-N-[4-(cyclopropyloxy)pyridin-2-yl]benzamide], the IC50 is < 10 nM.
The same measure, in the same setting: the result for `CN1C[C@@H](c2nc(-c3ccc(C(=O)Nc4cc(C(F)(F)F)ccn4)cc3)c3c(N)nccn23)CC[C@@H]1C(F)(F)F` [Example 410, 4-{8-amino-3-[(3S,6R)-1-methyl-6-(trifluoromethyl)piperidin-3-yl]imidazo[1,5-a]pyrazin-1-yl}-N-[4-(trifluoromethyl)pyridin-2-yl]benzamide] reads < 10 nM.
As to `CN1C[C@@H](c2nc(-c3ccc(C(=O)Nc4cc(C(F)(F)F)ccn4)cc3F)c3c(N)nccn23)CC[C@@H]1C(F)(F)F` [Example 411, 4-{8-amino-3-[(3S,6R)-1-methyl-6-(trifluoromethyl)piperidin-3-yl]imidazo[1,5-a]pyrazin-1-yl}-3-fluoro-N-[4-(trifluoromethyl)pyridin-2-yl]benzamide], the IC50 was < 10 nM.

The same assay, now with this note: Table D; Assay Method C (LANCE TR-FRET), 50 pM hBTK, 25 μM ATP; read-out: IC50 BTK activity value.
For `C[C@H]1CC[C@@H](c2nc(-c3ccc(C(=O)Nc4cc(C(F)(F)F)ccn4)cc3)c3c(N)nccn23)CN1C(=O)C1(C)COC1` [Example 393, 4-(8-amino-3-{(3R,6S)-6-methyl-1-[(3-methyloxetan-3-yl)carbonyl]piperidin-3-yl}imidazo[1,5-a]pyrazin-1-yl)-N-[4-(trifluoromethyl)pyridin-2-yl]benzamide], the IC50 worked out at 0.167 nM.
Same read-out and setting: to `C[C@H]1CC[C@@H](c2nc(-c3ccc(C(=O)Nc4cc(C(F)(F)F)ccn4)c(Cl)c3)c3c(N)nccn23)CN1C(=O)C1(C)COC1` [Example 400, 4-(8-amino-3-{(3R,6S)-6-methyl-1-[(3-methyloxetan-3-yl)carbonyl]piperidin-3-yl}imidazo[1,5-a]pyrazin-1-yl)-2-chloro-N-[4-(trifluoromethyl)pyridin-2-yl]benzamide] belongs 0.96 nM.
